These results are taken from ChEMBL document CHEMBL1141845, “A new bistetrahydrofuran acetogenin from the roots of Annona salzmanii” (J Nat Prod, 1999).

SMILES strings stand for the structures.

A short description of data set [1]: Cytotoxicity against african green monkey Vero cells. To be noted: chlorocebus sabaeus, read-out: ED50 (the source's name). It counts as cell-based.
The next data set relates to KB. The data set can be described thus: Cytotoxicity against human KB cells. It is filed as functional.

`CCCCCC[C@H](O)CCC[C@H](O)[C@H]1CC[C@@H]([C@H]2CC[C@H]([C@H](O)CC[C@H](O)CCCCCCCCCC3=C[C@H](C)OC3=O)O2)O1` [SALZMANIN]: the CC50 in data set [1] was more than 0.01 µg/mL. In the data set with KB, this molecule came in with an ED50 of 0.1 ×10⁻⁴ ug/ml.

On to `CCCCCC[C@H](O)CCC[C@H](O)[C@H]1CC[C@H]([C@H]2CC[C@H]([C@H](O)CCCCCCCCCCCCC3=C[C@H](C)OC3=O)O2)O1` [SQUAMOCIN], for which the ED50 in the data set on KB is recorded as 4 ×10⁻⁴ ug/ml.

Consider `CC[C@]1(O)C[C@@H]2CN(CCc3c([nH]c4ccccc34)[C@@](C(=O)OC)(c3cc4c(cc3OC)N(C)[C@H]3[C@@](O)(C(=O)OC)[C@H](OC(C)=O)[C@]5(CC)C=CCN6CC[C@]43[C@@H]65)C2)C1` [VINBLASTINE], for which, in the data set on KB, the ED50 is 0.1 ×10⁻⁴ ug/ml.
